The source of these data is the supplement of paper PMC12532568.

The assay has as its system Danio rerio larvae Tg(actc1b:ZsGreen-LC3), 3 dpf. Nature of the assay: LC3 puncta relative area vs vehicle (mean) (log2 fold change); higher = more autophagy. Conditions: treatment time 16 h. The procedure:
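Transgenic ZsGreen-LC3 zebrafish larvae (2 dpf) were treated for 16 h with natural bioactives at 10, 50, 100 or 250 µM. Skeletal-muscle LC3 puncta area was measured by high-content imaging with or without 4 h of 100 mM NH4Cl, normalised to vehicle, and reported as the mean log2 fold change over 4–21 larvae.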

Where a name gives a salt, the structure may show the parent alone.

In the case of `CC(=O)CC(=O)O` [Lithium acetoacetate], the “LC3 puncta (log2)” value (NH4Cl: + NH4Cl, 10 µM) worked out at 0.433; the “LC3 puncta (log2)” value (NH4Cl: + NH4Cl, 50 µM) came to 0.388; the “LC3 puncta (log2)” value (NH4Cl: + NH4Cl, 100 µM) worked out at 0.24; the “LC3 puncta (log2)” value (NH4Cl: + NH4Cl, 250 µM) was 0.594; the “LC3 puncta (log2)” value (NH4Cl: - NH4Cl, 10 µM) came out at 0.304; the “LC3 puncta (log2)” value (NH4Cl: - NH4Cl, 50 µM) was -0.266. Also, the “LC3 puncta (log2)” value runs as follows: (NH4Cl: - NH4Cl, 100 µM) -0.279; (NH4Cl: - NH4Cl, 250 µM) 0.0398.

For `C/C=C\C=C\C(=O)O` [(2E,4Z)-2,4-hexadienoic acid], the “LC3 puncta (log2)” value by setting is: (NH4Cl: + NH4Cl, 10 µM) 0.772; (NH4Cl: + NH4Cl, 50 µM) 1.14; (NH4Cl: + NH4Cl, 100 µM) 1.21; (NH4Cl: + NH4Cl, 250 µM) 0.824; (NH4Cl: - NH4Cl, 10 µM) 0.44; (NH4Cl: - NH4Cl, 50 µM) -0.191. The “LC3 puncta (log2)” value by setting is: (NH4Cl: - NH4Cl, 100 µM) 1.17; (NH4Cl: - NH4Cl, 250 µM) -0.266.

Consider `O=c1c(O)c(-c2ccc(O)c(O)c2)oc2cc(O)cc(O)c12` [Quercetin], for which the “LC3 puncta (log2)” value was 0.773 (NH4Cl: + NH4Cl, 10 µM); 0.126 (NH4Cl: + NH4Cl, 50 µM); 0.298 (NH4Cl: + NH4Cl, 100 µM); 0.298 (NH4Cl: + NH4Cl, 250 µM); -0.173 (NH4Cl: - NH4Cl, 10 µM); -0.502 (NH4Cl: - NH4Cl, 50 µM). Moreover, the “LC3 puncta (log2)” value was -1.19 (NH4Cl: - NH4Cl, 100 µM) and -0.815 (NH4Cl: - NH4Cl, 250 µM).

Regarding `CC1=C(/C=C/C(C)=C/C=C/C(C)=C/C=C/C=C(C)/C=C/C=C(C)/C=C/C2=C(C)CCCC2(C)C)C(C)(C)CCC1` [beta-Carotene], the “LC3 puncta (log2)” value (NH4Cl: + NH4Cl, 10 µM) was determined as 0.44; the “LC3 puncta (log2)” value (NH4Cl: + NH4Cl, 50 µM) was found to be 0.208; the “LC3 puncta (log2)” value (NH4Cl: + NH4Cl, 100 µM) came out at 0.299; the “LC3 puncta (log2)” value (NH4Cl: + NH4Cl, 250 µM) stood at 1.2; the “LC3 puncta (log2)” value (NH4Cl: - NH4Cl, 10 µM) stood at 0.227; the “LC3 puncta (log2)” value (NH4Cl: - NH4Cl, 50 µM) was -0.273. For the same compound, the “LC3 puncta (log2)” value is, setting by setting: (NH4Cl: - NH4Cl, 100 µM) 0.207; (NH4Cl: - NH4Cl, 250 µM) 0.305.

For the compound `CC(O)C(=O)O` (stereo not drawn) [Lactic acid], the “LC3 puncta (log2)” value reads like this: (NH4Cl: + NH4Cl, 10 µM) 0.558; (NH4Cl: + NH4Cl, 50 µM) 0.374; (NH4Cl: + NH4Cl, 100 µM) 0.472; (NH4Cl: + NH4Cl, 250 µM) 0.345; (NH4Cl: - NH4Cl, 10 µM) 0.287; (NH4Cl: - NH4Cl, 50 µM) -0.151. For the same compound, the “LC3 puncta (log2)” value runs as follows: (NH4Cl: - NH4Cl, 100 µM) -0.219; (NH4Cl: - NH4Cl, 250 µM) 0.079.

On to `CC(C)CC(O)C(=O)O` (stereo not drawn) [2-Hydroxyisocaproic acid], for which the “LC3 puncta (log2)” value is 0.569 (NH4Cl: + NH4Cl, 10 µM); 1.04 (NH4Cl: + NH4Cl, 50 µM); 1.46 (NH4Cl: + NH4Cl, 100 µM); 1.21 (NH4Cl: + NH4Cl, 250 µM); -0.489 (NH4Cl: - NH4Cl, 10 µM); 0.415 (NH4Cl: - NH4Cl, 50 µM). The “LC3 puncta (log2)” value runs as follows: (NH4Cl: - NH4Cl, 100 µM) 0.346; (NH4Cl: - NH4Cl, 250 µM) 0.416.

With `C[C@@H]1O[C@@H](OC[C@H]2O[C@@H](Oc3c(-c4ccc(O)c(O)c4)oc4cc(O)cc(O)c4c3=O)[C@H](O)[C@@H](O)[C@@H]2O)[C@H](O)[C@H](O)[C@H]1O` [Rutin hydrate], the “LC3 puncta (log2)” value is 0.351 (NH4Cl: + NH4Cl, 10 µM); 0.0277 (NH4Cl: + NH4Cl, 50 µM); 0.401 (NH4Cl: + NH4Cl, 100 µM); 0.491 (NH4Cl: + NH4Cl, 250 µM); -0.169 (NH4Cl: - NH4Cl, 10 µM); -0.116 (NH4Cl: - NH4Cl, 50 µM). The “LC3 puncta (log2)” value (NH4Cl: - NH4Cl, 100 µM) is 0.291 and the “LC3 puncta (log2)” value (NH4Cl: - NH4Cl, 250 µM) amounted to 0.18.

Regarding `CCCCC(=O)[O-].[Na+]` [Valeric acid sodium salt], the “LC3 puncta (log2)” value is, setting by setting: (NH4Cl: + NH4Cl, 10 µM) -0.472; (NH4Cl: + NH4Cl, 50 µM) -0.35; (NH4Cl: + NH4Cl, 100 µM) -0.0575; (NH4Cl: + NH4Cl, 250 µM) -0.14; (NH4Cl: - NH4Cl, 10 µM) -0.132; (NH4Cl: - NH4Cl, 50 µM) 0.109. In addition, the “LC3 puncta (log2)” value (NH4Cl: - NH4Cl, 100 µM) was -0.272 and the “LC3 puncta (log2)” value (NH4Cl: - NH4Cl, 250 µM) is -0.191.

Regarding `CCCCCC=CCC=CCCCCCCCC(=O)O` [Linoaleic acid], the “LC3 puncta (log2)” value amounted to 0.722 (NH4Cl: + NH4Cl, 10 µM); 1.36 (NH4Cl: + NH4Cl, 50 µM); 1.01 (NH4Cl: + NH4Cl, 100 µM); 0.542 (NH4Cl: - NH4Cl, 10 µM); 0.956 (NH4Cl: - NH4Cl, 50 µM); 0.433 (NH4Cl: - NH4Cl, 100 µM).

On to `O=C(O)C[C@H](O)C(=O)O` [(2S)-2-hydroxybutanedioic acid], for which the “LC3 puncta (log2)” value is 0.631 (NH4Cl: + NH4Cl, 10 µM); 0.508 (NH4Cl: + NH4Cl, 50 µM); 0.375 (NH4Cl: + NH4Cl, 100 µM); -0.158 (NH4Cl: - NH4Cl, 10 µM); 0.038 (NH4Cl: - NH4Cl, 50 µM); 0.417 (NH4Cl: - NH4Cl, 100 µM). For the same compound, the “LC3 puncta (log2)” value (NH4Cl: - NH4Cl, 250 µM) was determined as 0.262.

`CCCCCCCCCC(=O)[O-].[Na+]` [Sodium decanoate]: the “LC3 puncta (log2)” value is 0.524 (NH4Cl: + NH4Cl, 10 µM); -0.00931 (NH4Cl: + NH4Cl, 50 µM); -1.55 (NH4Cl: + NH4Cl, 100 µM); -0.382 (NH4Cl: + NH4Cl, 250 µM); 0.285 (NH4Cl: - NH4Cl, 10 µM); -0.0288 (NH4Cl: - NH4Cl, 50 µM). For the same compound, the “LC3 puncta (log2)” value is, setting by setting: (NH4Cl: - NH4Cl, 100 µM) -0.846; (NH4Cl: - NH4Cl, 250 µM) 0.298.

For the compound `Cc1ccc(C(C)C)cc1O` [Carvacrol], the “LC3 puncta (log2)” value by setting is: (NH4Cl: + NH4Cl, 10 µM) 0.565; (NH4Cl: + NH4Cl, 50 µM) 1.07; (NH4Cl: + NH4Cl, 100 µM) 1.84; (NH4Cl: + NH4Cl, 250 µM) 1.67; (NH4Cl: - NH4Cl, 10 µM) 0.493; (NH4Cl: - NH4Cl, 50 µM) 0.93. For the same compound, the “LC3 puncta (log2)” value amounted to 1.08 (NH4Cl: - NH4Cl, 100 µM) and 1.92 (NH4Cl: - NH4Cl, 250 µM).

`C[C@@H](O)CC(=O)O` [(R)-3-Hydroxybutyric acid]: the “LC3 puncta (log2)” value runs as follows: (NH4Cl: + NH4Cl, 10 µM) 0.877; (NH4Cl: + NH4Cl, 50 µM) 0.689; (NH4Cl: + NH4Cl, 100 µM) 0.929; (NH4Cl: + NH4Cl, 250 µM) 1.01; (NH4Cl: - NH4Cl, 10 µM) 0.111; (NH4Cl: - NH4Cl, 50 µM) -0.78. In addition, the “LC3 puncta (log2)” value runs as follows: (NH4Cl: - NH4Cl, 100 µM) 0.265; (NH4Cl: - NH4Cl, 250 µM) 0.324.

For the compound `CC(O)CC(=O)O` (racemic) [DL-ß-Hydroxybutyric acid sodium salt], the “LC3 puncta (log2)” value is, setting by setting: (NH4Cl: + NH4Cl, 10 µM) -0.181; (NH4Cl: + NH4Cl, 50 µM) 0.231; (NH4Cl: + NH4Cl, 100 µM) 0.389; (NH4Cl: + NH4Cl, 250 µM) 0.588; (NH4Cl: - NH4Cl, 10 µM) 0.151; (NH4Cl: - NH4Cl, 50 µM) -0.288. Besides, the “LC3 puncta (log2)” value (NH4Cl: - NH4Cl, 100 µM) came out at 0.0785 and the “LC3 puncta (log2)” value (NH4Cl: - NH4Cl, 250 µM) came to 0.0274.

On to `CCOC(=O)CC(O)(CC(=O)OCC)C(=O)OCC` [Triethyl citrate], for which the “LC3 puncta (log2)” value (NH4Cl: + NH4Cl, 10 µM) stood at 0.559; the “LC3 puncta (log2)” value (NH4Cl: + NH4Cl, 50 µM) was found to be 0.524; the “LC3 puncta (log2)” value (NH4Cl: + NH4Cl, 100 µM) was 1.06; the “LC3 puncta (log2)” value (NH4Cl: + NH4Cl, 250 µM) was found to be 1.44; the “LC3 puncta (log2)” value (NH4Cl: - NH4Cl, 10 µM) is 0.227; the “LC3 puncta (log2)” value (NH4Cl: - NH4Cl, 50 µM) came to 0.572. The “LC3 puncta (log2)” value is 0.551 (NH4Cl: - NH4Cl, 100 µM) and 0.957 (NH4Cl: - NH4Cl, 250 µM).

For `O=C(O)C=CC(=O)O` [Butenedioic acid], the “LC3 puncta (log2)” value was 0.693 (NH4Cl: + NH4Cl, 10 µM); 1.1 (NH4Cl: + NH4Cl, 50 µM); 1.29 (NH4Cl: + NH4Cl, 100 µM); 1.14 (NH4Cl: + NH4Cl, 250 µM); 0.588 (NH4Cl: - NH4Cl, 10 µM); 0.758 (NH4Cl: - NH4Cl, 50 µM). Besides, the “LC3 puncta (log2)” value was 0.837 (NH4Cl: - NH4Cl, 100 µM) and 0.447 (NH4Cl: - NH4Cl, 250 µM).

For the compound `CC(=O)OC/C=C(C)/C=C/C=C(C)/C=C/C1=C(C)CCCC1(C)C` [Retinol acetate], the “LC3 puncta (log2)” value reads like this: (NH4Cl: + NH4Cl, 10 µM) 0.716; (NH4Cl: + NH4Cl, 50 µM) 0.504; (NH4Cl: + NH4Cl, 100 µM) 0.948; (NH4Cl: + NH4Cl, 250 µM) 1.18; (NH4Cl: - NH4Cl, 10 µM) 0.543; (NH4Cl: - NH4Cl, 50 µM) 0.167. Besides, the “LC3 puncta (log2)” value was 0.303 (NH4Cl: - NH4Cl, 100 µM) and 1.12 (NH4Cl: - NH4Cl, 250 µM).
